{"source": "patent US8952025B2", "about": "“Multifunctional radical quenchers and their uses” (Arizona Board of Regents, A Body Corporate of the State of …, priority 2010, dated 2015)", "key": {"FRDA fibroblasts": {"test_system": "FRDA fibroblasts", "experiment": "Calcein-AM cell viability assay, BSO-treated FRDA fibroblasts", "assay_type": "cell-based, human", "settings": "for EC50: BSO-treated FRDA fibroblasts, calcein-AM fluorescence, read-out: EC50 (effective concentration that prevents 50% of cell death); for protection of FRDA fibroblasts from oxidative damage (cell viability): BSO-treated FRDA fibroblast", "description": "A cell viability assay using the dye calcein acetoxymethyl (AM) was used to determine the effects of invention compounds on GSH-mediated cell death in primary FRDA patient derived fibroblasts (Jauslin et al. (2002) Human Molecular Genetics. 11, 3055-3063) FRDA fibroblasts were treated with L-buthionine (S,R)-sulfoximine (BSO) to inhibit de novo synthesis of GSH (Griffith et al. (1979) J. Biol. Chem. 254, 7558-7560) causing oxidative stress, plasma membrane damage and cell death. Fibroblasts from Friedreich Ataxia patients, but not control cells, die after GSH depletion on incubation with BSO (Jauslin et al. (2002) Human Molecular Genetics. 11, 3055-3063). Cell viability was determined using calcein-AM (Molecular Probe, Eugene, Oreg.). In live cells, non-fluorescent calcein AM is hydrolyzed by intracellular esterases to produce the strongly green fluorescent anion calcein.\nCell culture and reagents: Primary fibroblasts were derived from a patient donor with a molecular diagnosis of FRDA and control donor with no mitochondrial disease. These cell lines were obtained from Coriell Cell Repositories (Camden, N.J., USA; catalog numbers GM04078 and GM08402, respectively). Fibroblasts were cultured in 64% (v/v) Eagle's Minimal Essential Medium (MEM), no phenol red with Eagle's balanced salt (EBS) and 25% M199 with EBS (GIBCO, Grand island, N.Y., USA) supplemented with 10% (v/v) Fetal Calf Serum (HyClone, South Logan, Utah, USA), 1% penicillin-streptomycin mix antibiotics (Cellgro, Manassan, Va., USA), 10 ng/mL insulin (Sigma, St. Louis, Mo., USA), 10 ng/mL basic fibroblast growth factor βFGF (Lonza, Walkersville, Md., USA) and 2 mM glutamine (HyClone, South Logan, Utah, USA). BSO (L-buthionine (S,R)-sulfoximine) and (+)-alpha-tocopherol were purchased from Sigma Chemicals and calcein AM was purchased from Molecular Probes. Cell were grown in 75 cm^2 culture flasks (T75) and incubated at 37° C. in a humidified atmosphere of 5% CO2 in air. Cells were fed twice a week and split every third day at a ratio of 1:3 upon reaching confluency. The invention compounds and reduced and oxidized forms of idebenone and alpha-tocopherol were reconstituted in DMSO or ethanol to provide 2.5 mM stock solutions.\nIntervention compounds were screened according to the previous protocol (Jauslin et al. (2002) Human Molecular Genetics. 11, 3055-3063): Fibroblasts were seeded in 96 well microtiter black-walled cell culture plates (Costar, Corning, N.Y., USA) at a density of 3000 cells per well (100 μL). The plates were incubated overnight at 37° C. in a humidified atmosphere of 5% CO2 in air to allow attachment of the cells to the culture plate. Serial dilutions of intervention and references compounds were made from their respective stock solutions to give a total volume of 150 μL in each well. Plates were incubated overnight in cell culture. The following day, 50 μL of a 4 mM BSO solution (in culture media) was added to each well to provide a final BSO concentration of 1 mM. Cell viability was assessed after first signs of toxicity appeared in BSO-treated cells (typically after 24-30 hours) by examining cultures under phase-contrast microscopy. The cell culture medium was discarded by aspiration and each well of the cell culture plate washed with pre-warmed HSSB to remove serum esterase activity. Cells were then treated in with 200 μL of 1.2 μM calcein-AM in HSSB for 60 min at 37° C. in the dark to allow the dye to enter the cell and be cleaved by esterases. The negative control/background was 200 μL of HSSB buffer. Fluorescence intensities were measured with a Spectramax M5 spectrofluorometer (Molecular Devices, Sunnyvale, Calif., USA) using excitation and emission of 485 nm and 525 nm respectively. The intervention compounds were assayed in triplicate. […] The viability of non-BSO treated fibroblasts was set as 100%, and the viability of the BSO-treated and sample-treated cells was calculated relative to this value. […]"}, "CEM cells": {"test_system": "CEM cells", "experiment": "Reactive oxygen species (ROS) assay, DCFH-DA, DEM-treated cells", "assay_type": "cell-based, human"}}, "note": "Entries after “also recorded” stand apart in the source; their conditions may differ. Read-outs that look alike come from different tables or passages of the source.", "data": [{"molecule": "COC1=C(OC)C(=O)C(CCCCCCCCCCO)=C(C)C1=O", "note": "[idebenone, reference compound]", "values": [{"measurement": "EC50", "setting": "FRDA fibroblasts; Homo sapiens, Fibroblast", "result": "0.71 ± 0.08", "unit": "µM"}, {"measurement": "protection against ROS production (DCF fluorescence)", "setting": "CEM cells; compound 5 μM, 5 mM DEM", "result": "only limited effect"}]}, {"molecule": "Cc1nc(N(C)C)nc(CCCCCCCCCCO)c1O", "note": "[Compound A, 2-N,N-dimethylamino-5-hydroxy-4-methyl-6-(10-hydroxydecyl)-pyrimidine]", "values": [{"measurement": "protection of FRDA fibroblasts from oxidative damage (cell viability)", "setting": "FRDA fibroblasts", "result": "more effective than idebenone"}, {"measurement": "EC50", "setting": "FRDA fibroblasts; Homo sapiens, Fibroblast", "result": "0.39 ± 0.028", "unit": "µM"}, {"measurement": "protection against ROS production (DCF fluorescence)", "setting": "CEM cells; compound 1 μM, 5 mM DEM", "result": "complete protection"}, {"measurement": "protection against ROS production (DCF fluorescence)", "setting": "CEM cells; compound 5 μM, 5 mM DEM", "result": "significantly more effective in blocking diethylmaleate-induced ROS production compared to idebenone or its reduced form (Idebenol); also recorded: protected the cells"}, {"measurement": "suppression of ROS production (DCF fluorescence)", "setting": "CEM cells; pretreatment 0.5, 1 or 5 μM, DEM", "result": "more effective than idebenone at all tested concentrations; also recorded: more effective than idebenone in suppressing ROS in a dose-dependent fashion"}]}, {"molecule": "Cc1c(C)c2c(c(C)c1O)CC[C@@](C)(CCC[C@H](C)CCC[C@H](C)CCCC(C)C)O2", "note": "[α-tocopherol, reference compound]", "values": [{"measurement": "EC50", "setting": "FRDA fibroblasts", "result": "1.03 ± 0.116", "unit": "µM"}, {"measurement": "protection against ROS production (DCF fluorescence)", "setting": "CEM cells; compound 5 μM, 5 mM DEM", "result": "ineffective"}]}, {"molecule": "Cc1nc2c(c(CC[C@](C)(O)CCC[C@H](C)CCC[C@H](C)CCCC(C)C)c1O)CCN2C", "note": "[Compound C, 4-((3R,7R,11R)-3-hydroxy-3,7,11,15-tetramethylhexadecyl)-1,6-dimethyl-2,3-dihydro-1H-pyrrolo[2,3-b]pyridine-5-ol]", "values": [{"measurement": "protection of FRDA fibroblasts from oxidative damage (cell viability)", "setting": "FRDA fibroblasts", "result": "slightly more effective than α-tocopherol"}, {"measurement": "EC50", "setting": "FRDA fibroblasts; Homo sapiens, Fibroblast", "result": "0.833 ± 0.075", "unit": "µM"}, {"measurement": "suppression of ROS (DCF fluorescence)", "setting": "CEM cells; 1 μM, pretreatment 1, 3 or 6 hours, 5 mM DEM", "result": "clearly more effective than α-tocopherol in suppressing ROS"}, {"measurement": "protection against ROS production (DCF fluorescence)", "setting": "CEM cells; 5 μM, pretreatment 4 or 24 h", "result": "better protection against ROS production than α-tocopherol after a 4-hour preincubation"}, {"measurement": "protection against ROS production (DCF fluorescence)", "setting": "CEM cells; compound 5 μM, 5 mM DEM", "result": "more effective in protecting glutathione depleted CEM cells than α-tocopherol; also recorded: protected the cells"}]}]}
